Laboratory results taken from ChEMBL document CHEMBL2086347, “Antitrypanosomal and cysteine protease inhibitory activities of alkyldiamine cryptolepine derivatives” (Bioorg Med Chem Lett, 2012).

Legend:
[1] = tested on: Trypanosoma brucei brucei; assay: Antitrypanosomal activity against Trypanosoma brucei brucei; format: functional, organism-based
[2] = Inhibition of Trypanosoma cruzi cruzaine
[3] = Cytotoxicity against african green monkey Vero cells; format: cell-based; conditions: chlorocebus sabaeus
Rhodesain = Rhodesain (Trypanosoma brucei rhodesiense, UniProt Q95PM0); assay: Inhibition of Trypanosoma brucei rhodesiense rhodesain
Sequence of Rhodesain (Q95PM0 whole entry): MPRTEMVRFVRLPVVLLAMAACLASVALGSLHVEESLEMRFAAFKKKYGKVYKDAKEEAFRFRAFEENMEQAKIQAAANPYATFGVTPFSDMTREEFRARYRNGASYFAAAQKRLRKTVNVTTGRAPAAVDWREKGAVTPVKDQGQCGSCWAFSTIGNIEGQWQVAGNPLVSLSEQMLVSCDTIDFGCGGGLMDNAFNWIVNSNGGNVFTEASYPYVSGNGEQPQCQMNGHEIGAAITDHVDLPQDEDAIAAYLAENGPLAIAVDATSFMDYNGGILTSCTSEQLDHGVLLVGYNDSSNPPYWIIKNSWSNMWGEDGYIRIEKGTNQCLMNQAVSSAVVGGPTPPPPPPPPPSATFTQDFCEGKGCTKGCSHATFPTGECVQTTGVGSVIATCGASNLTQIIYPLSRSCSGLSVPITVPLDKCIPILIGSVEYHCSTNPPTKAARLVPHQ

[4] = molecular target: T1, Cathepsin B-like cysteine protease (Trypanosoma brucei, UniProt Q6R7Z5); assay: Inhibition of Trypanosoma brucei CatB
T1 sequence (Q6R7Z5 whole entry): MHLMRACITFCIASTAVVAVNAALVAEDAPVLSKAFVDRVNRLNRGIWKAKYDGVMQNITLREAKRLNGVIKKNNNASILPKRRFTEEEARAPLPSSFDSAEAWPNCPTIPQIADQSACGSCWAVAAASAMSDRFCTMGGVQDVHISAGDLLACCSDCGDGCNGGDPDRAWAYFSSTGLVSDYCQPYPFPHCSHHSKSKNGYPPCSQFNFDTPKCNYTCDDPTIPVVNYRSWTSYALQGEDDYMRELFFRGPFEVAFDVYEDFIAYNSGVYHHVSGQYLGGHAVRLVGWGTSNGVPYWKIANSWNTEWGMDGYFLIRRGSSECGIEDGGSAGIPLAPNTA

[5] = Selectivity index, ratio of CC50 for african green monkey Vero cells to IC50 for Trypanosoma brucei brucei; format: functional

With `CCN(CC)CCCNc1c2ccccc2[n+](C)c2c1[nH]c1ccccc12.[Cl-]` the IC50 [1] was 50 nM, the IC50 [2] was 34 µM and the CC50 [3] was 2500 nM. For the same molecule, the IC50 (Rhodesain) was 13 µM, the IC50 [4] was 97 µM and the “Ratio CC50/IC50” value [5] was 40.
With `CCN(CC)CCCNc1c2ccc(Cl)cc2[n+](C)c2c1[nH]c1ccccc12.[Cl-]` the IC50 [1] was 20 nM, the IC50 [2] was 2 µM and the CC50 [3] was 1300 nM. For the same molecule, the IC50 (Rhodesain) was 0.5 µM, the IC50 [4] was 64 µM and the “Ratio CC50/IC50” value [5] was 65.
`C[n+]1c2ccccc2cc2[n-]c3ccccc3c21.Cl` [CRYPTOLEPINE HYDROCHLORIDE] showed an IC50 [1] of 2000 nM, an IC50 [2] of 28 µM and a CC50 [3] of 1100 nM. For the same molecule, the IC50 (Rhodesain) was 23 µM, the IC50 [4] was 64 µM and the “Ratio CC50/IC50” value [5] was 0.6.
With `CN(C)CCNc1c2ccccc2[n+](C)c2c1[nH]c1ccccc12.[Cl-]` the IC50 [1] was 700 nM, the IC50 [2] was 23 µM and the CC50 [3] was 5500 nM. For the same molecule, the IC50 (Rhodesain) was 7 µM, the IC50 [4] was 91 µM and the “Ratio CC50/IC50” value [5] was 7.9.
With `CC(C)NCCCNc1c2ccccc2[n+](C)c2c1[nH]c1ccccc12.[Cl-]` the IC50 [1] was 100 nM, the IC50 [2] was 42 µM and the CC50 [3] was 3000 nM. For the same molecule, the IC50 (Rhodesain) was 26 µM, the IC50 [4] was 62 µM and the “Ratio CC50/IC50” value [5] was 30.
Molecule `CCN(CC)CCCC(C)Nc1c2ccccc2[n+](C)c2c1[nH]c1ccccc12.[Cl-]` (stereo unspecified) has an IC50 [1] of 400 nM, an IC50 [2] of 27 µM and a CC50 [3] of 13000 nM. The IC50 (Rhodesain) was 17 µM, the IC50 [4] was > 100 µM and the “Ratio CC50/IC50” value [5] was 33.
Work on `CN(C)CC(C)(C)CNc1c2ccccc2[n+](C)c2c1[nH]c1ccccc12.[Cl-]` yielded an IC50 [1] of 300 nM, an IC50 [2] of 26 µM and a CC50 [3] of 3000 nM. The IC50 (Rhodesain) was 19 µM, the IC50 [4] was 62 µM and the “Ratio CC50/IC50” value [5] was 10.
`C[n+]1c2ccccc2c(NCCCN2CCCCC2)c2[nH]c3ccccc3c21.[Cl-]` showed an IC50 [1] of 60 nM, an IC50 [2] of 11 µM and a CC50 [3] of 2000 nM. For the same molecule, the IC50 (Rhodesain) was 5 µM, the IC50 [4] was 60 µM and the “Ratio CC50/IC50” value [5] was 33.
`C[n+]1c2ccccc2c(NC2CCN(Cc3ccccc3O)CC2)c2[nH]c3ccccc3c21.[Cl-]` gave an IC50 [1] of 40 nM, an IC50 [2] of 6 µM and a CC50 [3] of 2600 nM. For the same molecule, the IC50 (Rhodesain) was 0.9 µM, the IC50 [4] was 26 µM and the “Ratio CC50/IC50” value [5] was 65.
Molecule `CN(C)CCCNc1c2ccccc2[n+](C)c2c1[nH]c1ccccc12.[Cl-]` has an IC50 [1] of 30 nM, an IC50 [2] of 14 µM and a CC50 [3] of 2200 nM. For the same molecule, the IC50 (Rhodesain) was 6 µM, the IC50 [4] was 31 µM and the “Ratio CC50/IC50” value [5] was 73.
Work on `CCN(CC)CCNc1c2ccccc2[n+](C)c2c1[nH]c1ccccc12.[Cl-]` yielded an IC50 [1] of 900 nM, an IC50 [2] of 23 µM and a CC50 [3] of 2800 nM. For the same molecule, the IC50 (Rhodesain) was 11 µM, the IC50 [4] was 95 µM and the “Ratio CC50/IC50” value [5] was 3.1.
In the case of `C[n+]1c2cc(Cl)ccc2c(NC2CCNCC2)c2[nH]c3ccccc3c21.[Cl-]`, the IC50 [1] is reported as 300 nM, the IC50 [2] is reported as 1 µM and the CC50 [3] is reported as 4400 nM. For the same molecule, the IC50 (Rhodesain) was 0.5 µM, the IC50 [4] was 59 µM and the “Ratio CC50/IC50” value [5] was 147.
Molecule `CC(C)CN1CCC(Nc2c3ccccc3[n+](C)c3c2[nH]c2ccccc23)CC1.[Cl-]` has an IC50 [1] of 50 nM, an IC50 [2] of 8 µM and a CC50 [3] of 5000 nM. For the same molecule, the IC50 (Rhodesain) was 2 µM, the IC50 [4] was 26 µM and the “Ratio CC50/IC50” value [5] was 100.
`CCN(CC)Cc1ccc(Nc2c3ccccc3[n+](C)c3c2[nH]c2ccccc23)cc1O.[Cl-]` gave an IC50 [1] of 30 nM, an IC50 [2] of 10 µM and a CC50 [3] of 800 nM. The IC50 (Rhodesain) was 5 µM, the IC50 [4] was 59 µM and the “Ratio CC50/IC50” value [5] was 27.
`CCN(CC)CCCCNc1c2ccccc2[n+](C)c2c1[nH]c1ccccc12.[Cl-]` showed an IC50 [1] of 30 nM, an IC50 [2] of 22 µM and a CC50 [3] of 10000 nM. The IC50 (Rhodesain) was 6 µM, the IC50 [4] was 55 µM and the “Ratio CC50/IC50” value [5] was 333.
For `C[n+]1c2ccccc2c(Nc2ccccc2)c2[nH]c3ccccc3c21.[Cl-]`, the IC50 [1] was 300 nM, the IC50 [2] was 15 µM and the CC50 [3] was 600 nM. The IC50 (Rhodesain) was 7 µM, the IC50 [4] was 99 µM and the “Ratio CC50/IC50” value [5] was 2.
For `CC(CN(C)C)Nc1c2ccccc2[n+](C)c2c1[nH]c1ccccc12.[Cl-]` (stereo unspecified), the IC50 [1] was 1000 nM, the IC50 [2] was 10 µM and the CC50 [3] was 3000 nM. The IC50 (Rhodesain) was 5 µM, the IC50 [4] was > 100 µM and the “Ratio CC50/IC50” value [5] was 3.
In the case of `C[n+]1c2ccccc2c(NC2CCN(Cc3ccccc3)CC2)c2[nH]c3ccccc3c21.[Cl-]`, the IC50 [1] is reported as 30 nM, the IC50 [2] is reported as 8 µM and the CC50 [3] is reported as 2200 nM. For the same molecule, the IC50 (Rhodesain) was 4 µM, the IC50 [4] was 32 µM and the “Ratio CC50/IC50” value [5] was 73.
Molecule `C[n+]1c2ccccc2c(NC2CCNCC2)c2[nH]c3ccccc3c21.[Cl-]` has an IC50 [1] of 10 nM, an IC50 [2] of 3 µM and a CC50 [3] of 62000 nM. The IC50 (Rhodesain) was 2 µM and the “Ratio CC50/IC50” value [5] was 6200.
In the case of `C[n+]1c2cc(Cl)ccc2c(NC2CCNCC2)c2[nH]c3cc(Cl)ccc3c21.[Cl-]`, the IC50 [1] is reported as < 6 nM, the IC50 [2] is reported as 1 µM and the CC50 [3] is reported as 800 nM. For the same molecule, the IC50 (Rhodesain) was 0.5 µM, the IC50 [4] was 43 µM and the “Ratio CC50/IC50” value [5] was 133.
`C[n+]1c2ccccc2c(Nc2ccc(N3CCCCC3)cc2)c2[nH]c3ccccc3c21.[Cl-]` showed an IC50 [1] of 80 nM, an IC50 [2] of 3 µM and a CC50 [3] of 4800 nM. For the same molecule, the IC50 (Rhodesain) was 1 µM, the IC50 [4] was 76 µM and the “Ratio CC50/IC50” value [5] was 60.
With `C[n+]1c2ccccc2c(Nc2cccnc2)c2[nH]c3ccccc3c21.[Cl-]` the IC50 [1] was 300 nM, the IC50 [2] was 5 µM and the CC50 [3] was 2600 nM. The IC50 (Rhodesain) was 2 µM, the IC50 [4] was 59 µM and the “Ratio CC50/IC50” value [5] was 8.6.
